Our source for the IC50 values is patent publication US20040024055A1, “Pharmaceutical composition containing the exract of saururus chinensis baill useful as an anticancer agent and a process for the preparation thereof” (priority 2000, published 2004).

The experiment relates to SK-Hep-1 liver cancer cell line. The experiment is described as follows: MTT analysis, anticancer activity. Format: cell-based, human. Conditions: Homo sapiens, SK-HEP1, 48 hr.

The term IC50 denotes the point on the concentration scale where inhibition reaches its midpoint. A lower IC50 goes with greater potency.

Where only a bound is given, the exact number is not on record here.

Method: To be specific, SK-Hep-1 cell, which is liver cancer cell line, was added to 96-well microplate (Falcon, USA) with the concentration of 3×10^5 cells/ml by 100 μl per well. Each extracted and separated substance dissolved in DMSO was added to the well by 100 μl for the final concentration to be from 50 μg/ml to 0.0244 μg/ml, with 200 μl of final volume. Each cell was cultured for 48 hr in a culture medium of 37° C. and 5% CO2. After cultivation, 20 μl of phosphate buffer solution containing 5 mg/ml of MTT (3-[4,5-dimethylthiazol-2-yl]-2,5-diphenyltetrazoliumbromide, Sigma Co.) reagent was added to each well, and then cultured for 4 hr. After taking 100 μl of supernant from each culture medium, 100 μl of 0.04N hydrochloric acid-isopropanol was added. After letting alone overnight, absorbance was measured at 560 nm using automatic Eliza detector (Molecular Divices Corp., USA). Anticancer activity of each extracted and separated substance was calculated from the absorbance value by Equation 1 and was expressed in terms of cell.
Average Existence Rate(%)=(Absorbance of Treated Group)/(Absorbance of Control Group)×100

The compound `O=c1[nH]cc(F)c(=O)[nH]1` [5-FU, 5-fluorouracil] gave an IC50 of more than 50 µg/mL.
